“Also recorded” adds a separate entry of the source.
How the values were obtained:
[1] = test system: volunteers; assay: Berg-Washington Card Sorting Task Test (BCST), double blind crossover vs placebo; format: in vivo, human; conditions: 200 mg
Description: (§1) In a double blind, randomized, crossover, and repeated measures manner, 13 volunteers (10 male, 3 female, average age 24±5 years, average body weight 72.91±19.30 kg, average height 169.96±11.84 cm, average BMI 24.80±3.71 kg/m^2) participated in this study. Participants limited ingestion of caffeine and other stimulants to normal use for 48-hours, fasted for 8-hours and reported to the lab and completed 4 different cognitive function tests to assess short-term attention and inhibitory control (Go-No Go Test), sustained attention (Vigilance Task Test), working memory (Sternberg Task Test) and cognitive flexibility (Berg-Washington Card Sorting Test). Once completed, the participants ingested either a placebo or 200 mg of paraxanthine (WGI, TX, USA) with 8 ounces of water. Participants repeated cognitive function tests 1, 2, 3, 4, 5, and 6 hours after ingestion of the supplement. After one-week participants repeated the experiment while consuming the other treatment.
(§2) Data were analyzed by a General Linear Model multivariate and univariate analyses with repeated measures using body weight as a covariate. Data are expressed as means±standard deviations for the placebo (PLA) and Paraxanthine (PrX). Greenhouse-Geisser univariate p-levels are listed for time (T), weight×time (W×T) and group×time (G×T) interactions effects. Pairwise comparison is indicated by the following superscripts: †=[…] difference from baseline value; *=[…] difference from baseline; a=[…] difference between groups; b=[…] difference between groups. Eta2 vaules of […] are considered small, […] medium, and >0.14 are considered large.
Berg-Washington Card Sorting Task Test is a test of basic cognitive flexibility or set-shifting between old/new rule changes. The test involves reasoning, learning, executive control and attention shifting. It is particularly sensitive to the inability to shift set. Less errors means subjects were able to both recognize and ‘shift’ to a new rule with higher ability. […]

[2] = test system: volunteers; assay: Go/No-Go test, double blind crossover vs placebo; format: in vivo, human; conditions: 200 mg; for Response Time Average: in ms (unit assumed)
Description: as §1, §2
A test of sustained attention and response control (i.e., attention/inhibition). Lower response times represents better ability to pay attention and inhibitory control.

[3] = test system: subjects; assay: Paraxanthine pre-workout, subject reports; format: in vivo, human; conditions: single subject, own words
Protocol: Health subjects were administered paraxanthine and asked to report their experience. Subjects reported the following.

[4] = Toxicity, LD50; conditions: in vivo
[5] = Mean (SEM) over all hours, listed as PrX

Cn1c(=O)[nH]c2ncn(C)c2c1=O [paraxanthine, 1,7-dimethylxanthine]
number of correct answers in BCST, in words [1]: significantly increased
number of errors in BCST, in words [1]: reducing the number of errors
perseverative errors PEBL (FIG. 3) [1]: no significant time or between treatment effects
BCST Correct Response ([1]; Mean (SEM) over all hours): 97.3
BCST Errors ([1]; Mean (SEM) over all hours): 18.0
BCST Perseverative Errors (PAR rules) ([1]; Mean (SEM) over all hours): 8.7 ± 1.6
BCST Perseverative Errors (PEBL) ([1]; Mean (SEM) over all hours): 12.7 ± 1.2
BCST Correct Response [1, 5]: 102.5 ± 3.4
BCST Errors [1, 5]: 18.0 ± 3.9
change in correct answers after 6 hours ([1]; after 6 hours): +1.9
change in errors after 6 hours ([1]; after 6 hours): −0.6
correct responses adjusted for differences in baseline values ([1]; baseline-adjusted): 2.5
errors adjusted for differences in baseline values ([1]; baseline-adjusted): −1.5
less errors than placebo, adjusted for differences in baseline values ([1]; baseline-adjusted, vs placebo): 600%
more correct responses than placebo, adjusted for differences in baseline values ([1]; baseline-adjusted, vs placebo): 150%
BCST Correct Response ([1]; hour 0 (before ingestion)): 100.0 ± 6.6
BCST Errors ([1]; hour 0 (before ingestion)): 19.5 ± 6.6
BCST Perseverative Errors (PAR rules) ([1]; hour 0 (before ingestion)): 10.1 ± 4.6
BCST Perseverative Errors (PEBL) ([1]; hour 0 (before ingestion)): 13.7 ± 5.0
BCST Correct Response ([1]; hour 1 after ingestion): 101.4 ± 3.6
BCST Errors ([1]; hour 1 after ingestion): 18.1 ± 4.3
BCST Perseverative Errors (PAR rules) ([1]; hour 1 after ingestion): 8.8 ± 2.1
BCST Perseverative Errors (PEBL) ([1]; hour 1 after ingestion): 12.5 ± 3.0
BCST Correct Response ([1]; hour 2 after ingestion): 104.3
BCST Errors ([1]; hour 2 after ingestion): 16.8
BCST Perseverative Errors (PAR rules) ([1]; hour 2 after ingestion): 7.8
BCST Perseverative Errors (PEBL) ([1]; hour 2 after ingestion): 12.3
number of correct responses (FIG. 1) ([1]; hour 2 and 4 over baseline): significantly (p<0.5) increased
BCST Correct Response ([1]; hour 3 after ingestion): 100.6 ± 5.8
BCST Errors ([1]; hour 3 after ingestion): 17.0 ± 3.9
BCST Perseverative Errors (PAR rules) ([1]; hour 3 after ingestion): 8.5 ± 2.9
BCST Perseverative Errors (PEBL) ([1]; hour 3 after ingestion): 12.3 ± 3.2
number of correct responses between groups (FIG. 1) ([1]; hour 4, between groups): showed a trend (p<0.1) between groups
BCST Correct Response ([1]; hour 4 after ingestion): 106.4
BCST Errors ([1]; hour 4 after ingestion): 19.0
BCST Perseverative Errors (PAR rules) ([1]; hour 4 after ingestion): 8.6
BCST Perseverative Errors (PEBL) ([1]; hour 4 after ingestion): 13.3
BCST Correct Response ([1]; hour 5 after ingestion): 101.5 ± 4.0
BCST Errors ([1]; hour 5 after ingestion): 18.5 ± 4.2
BCST Perseverative Errors (PAR rules) ([1]; hour 5 after ingestion): 8.8 ± 3.6
BCST Perseverative Errors (PEBL) ([1]; hour 5 after ingestion): 13.1 ± 3.6
perseverative errors PAR between groups (FIG. 4) ([1]; hour 6, between groups): trend (p<0.1) towards less errors between groups
BCST Correct Response ([1]; hour 6 after ingestion): 103.5
BCST Errors ([1]; hour 6 after ingestion): 16.3
BCST Perseverative Errors (PAR rules) ([1]; hour 6 after ingestion): 8.1
BCST Perseverative Errors (PEBL) ([1]; hour 6 after ingestion): 11.7
errors compared to baseline (FIG. 2) ([1]; hour 6 vs baseline): trend (p<0.1) towards less error
less errors than placebo, overall ([1]; overall, vs placebo): 23.7%
more correct responses than placebo, overall ([1]; overall, vs placebo): 5.3%
Round 1 Condition P mean response time (FIG. 6) [2]: no significant differences over time or between treatments
percentage of correct answers, in words [2]: maintained percentage of correct answers
Correct Response Mean Accuracy (%) ([2]; Mean (SEM) over all hours): 92.5%
Round 1: Condition P Mean - Response Time (Millisecond) ([2]; Mean (SEM) over all hours): 394.55 ± 18.07 Millisecond
Round 2: Condition P Mean - Response Time (Millisecond) ([2]; Mean (SEM) over all hours): 356.55 ± 18.00 Millisecond
Round 2: Condition R Mean - Response Time (Millisecond) ([2]; Mean (SEM) over all hours): 396.32 ± 20.27 Millisecond
Response Time Average ([2]; Mean (SEM) over all hours): 374.94 ± 17.45
Correct Response Mean Accuracy (%) ([2]; Mean (SEM) over all hours, listed as PX): 92.5 ± 1.3%
response times to correctly respond compared to PLA ([2]; acute): faster response times
Correct Response Mean Accuracy (%) ([2]; hour 0 (before ingestion)): 93.0 ± 2.9%
Round 1: Condition P Mean - Response Time (Millisecond) ([2]; hour 0 (before ingestion)): 392.29 ± 44.29 Millisecond
Round 1: Condition R Mean - Response Time (Millisecond) ([2]; hour 0 (before ingestion)): 344.30 ± 70.08 Millisecond
Round 2: Condition P Mean - Response Time (Millisecond) ([2]; hour 0 (before ingestion)): 345.19 ± 37.11 Millisecond
Round 2: Condition R Mean - Response Time (Millisecond) ([2]; hour 0 (before ingestion)): 401.46 ± 52.36 Millisecond
Response Time Average ([2]; hour 0 (before ingestion)): 373.88 ± 43.64
Correct Response Mean Accuracy (%) ([2]; hour 1 after ingestion): 93.7 ± 2.3%
Round 1: Condition P Mean - Response Time (Millisecond) ([2]; hour 1 after ingestion): 387.51 ± 38.34 Millisecond
Round 1: Condition R Mean - Response Time (Millisecond) ([2]; hour 1 after ingestion): 336.24 ± 73.85 Millisecond
Round 2: Condition P Mean - Response Time (Millisecond) ([2]; hour 1 after ingestion): 346.39 ± 47.07 Millisecond
Round 2: Condition R Mean - Response Time (Millisecond) ([2]; hour 1 after ingestion): 390.30 ± 41.57 Millisecond
Response Time Average ([2]; hour 1 after ingestion): 366.68 ± 36.59
Correct Response Mean Accuracy (%) ([2]; hour 2 after ingestion): 92.9 ± 3.6%
Round 1: Condition P Mean - Response Time (Millisecond) ([2]; hour 2 after ingestion): 392.71 ± 38.09 Millisecond
Round 1: Condition R Mean - Response Time (Millisecond) ([2]; hour 2 after ingestion): 347.17 ± 59.16 Millisecond
Round 2: Condition P Mean - Response Time (Millisecond) ([2]; hour 2 after ingestion): 352.72 ± 46.18 Millisecond
Round 2: Condition R Mean - Response Time (Millisecond) ([2]; hour 2 after ingestion): 389.31 ± 39.82 Millisecond
Response Time Average ([2]; hour 2 after ingestion): 371.09 ± 30.25
Correct Response Mean Accuracy (%) ([2]; hour 3 after ingestion): 91.7%
Round 1: Condition P Mean - Response Time (Millisecond) ([2]; hour 3 after ingestion): 402.18 Millisecond
Round 1: Condition R Mean - Response Time (Millisecond) ([2]; hour 3 after ingestion): 360.11 Millisecond
Round 2: Condition P Mean - Response Time (Millisecond) ([2]; hour 3 after ingestion): 372.09 Millisecond
Round 2: Condition R Mean - Response Time (Millisecond) ([2]; hour 3 after ingestion): 401.47 Millisecond
Response Time Average ([2]; hour 3 after ingestion): 384.07
Correct Response Mean Accuracy (%) ([2]; hour 4 after ingestion): 91.3%
Round 1: Condition P Mean - Response Time (Millisecond) ([2]; hour 4 after ingestion): 387.65 Millisecond
Round 1: Condition R Mean - Response Time (Millisecond) ([2]; hour 4 after ingestion): 350.94 Millisecond
Round 2: Condition P Mean - Response Time (Millisecond) ([2]; hour 4 after ingestion): 362.02 Millisecond
Round 2: Condition R Mean - Response Time (Millisecond) ([2]; hour 4 after ingestion): 399.45 Millisecond
Response Time Average ([2]; hour 4 after ingestion): 375.03
Correct Response Mean Accuracy (%) ([2]; hour 5 after ingestion): 93.1%
Round 1: Condition P Mean - Response Time (Millisecond) ([2]; hour 5 after ingestion): 406.70 Millisecond
Round 1: Condition R Mean - Response Time (Millisecond) ([2]; hour 5 after ingestion): 365.08 Millisecond
Round 2: Condition P Mean - Response Time (Millisecond) ([2]; hour 5 after ingestion): 359.18 Millisecond
Round 2: Condition R Mean - Response Time (Millisecond) ([2]; hour 5 after ingestion): 405.58 Millisecond
Response Time Average ([2]; hour 5 after ingestion): 383.60
Correct Response Mean Accuracy (%) ([2]; hour 6 after ingestion): 91.6 ± 4.4%
Round 1: Condition P Mean - Response Time (Millisecond) ([2]; hour 6 after ingestion): 393.51 ± 53.02 Millisecond
Round 1: Condition R Mean - Response Time (Millisecond) ([2]; hour 6 after ingestion): 352.14 ± 56.48 Millisecond
Round 2: Condition P Mean - Response Time (Millisecond) ([2]; hour 6 after ingestion): 357.05 ± 99.19 Millisecond
Round 2: Condition R Mean - Response Time (Millisecond) ([2]; hour 6 after ingestion): 387.41 ± 53.47 Millisecond
Response Time Average ([2]; hour 6 after ingestion): 371.27 ± 53.76
average response time (FIG. 10) ([2]; round 1+round 2): maintained mean response time over time
Round 1 Condition R mean response time (FIG. 7) ([2]; round 1, vs PLA): better maintained mean response time over time compared to PLA
Round 2 Condition P mean response time (FIG. 8) ([2]; round 2, vs PLA): better maintained mean response time over time compared to PLA
Round 2 Condition R mean response time (FIG. 9) ([2]; round 2, vs PLA): non-significantly better maintained mean response time over time compared to PLA
change of mean response times ([2]; vs baseline): −0.3%
decrease of correct responses in comparison to baseline ([2]; vs baseline): 0.5%
Mean Correct Responses higher compared to placebo ([2]; vs placebo): 1.1%
experience reported by subject [3]: happier, better, more energy and focused; also recorded: phenomenal; also recorded: clean energy, but not stressed or stimmed; also recorded: it works
LD50 [4]: 1600 mg/kg
